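Tested at 5 concentrations; 48 h exposure; 96-well plates; endpoints linearly interpolated, else capped at highest concentration. GI50 is the concentration that inhibits growth by half. At the TGI there is no net growth.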
Columns and labels:
Assay in all cases: NCI-60 cell line screen, 48 h
786-0 renal = test system: 786-0 renal
A549 NSCLC = test system: A549 NSCLC
ACHN renal = test system: ACHN renal
COLO 205 colon = test system: COLO 205 colon
DU-145 prostate = test system: DU-145 prostate
EKVX NSCLC = test system: EKVX NSCLC
HCT-116 colon = test system: HCT-116 colon
HCT-15 colon = test system: HCT-15 colon
HL-60(TB) leukemia = test system: HL-60(TB) leukemia
HOP-62 NSCLC = test system: HOP-62 NSCLC
HS 578T breast = test system: HS 578T breast
HT29 colon = test system: HT29 colon
IGROV1 ovarian = test system: IGROV1 ovarian
K-562 leukemia = test system: K-562 leukemia
KM12 colon = test system: KM12 colon
LOX IMVI melanoma = test system: LOX IMVI melanoma
M14 melanoma = test system: M14 melanoma
MALME-3M melanoma = test system: MALME-3M melanoma
MCF7 breast = test system: MCF7 breast
MDA-MB-231 breast = test system: MDA-MB-231 breast
MDA-MB-435 = test system: MDA-MB-435
MOLT-4 leukemia = test system: MOLT-4 leukemia
NCI-H226 lung = test system: NCI-H226 lung
NCI-H23 lung = test system: NCI-H23 lung
NCI-H460 lung = test system: NCI-H460 lung
NCI-H522 lung = test system: NCI-H522 lung
NCI/ADR-RES ovarian = test system: NCI/ADR-RES ovarian
OVCAR-3 ovarian = test system: OVCAR-3 ovarian
OVCAR-4 ovarian = test system: OVCAR-4 ovarian
OVCAR-5 ovarian = test system: OVCAR-5 ovarian
OVCAR-8 ovarian = test system: OVCAR-8 ovarian
PC-3 prostate = test system: PC-3 prostate
RXF 393 renal = test system: RXF 393 renal
SF-268 CNS = test system: SF-268 CNS
SF-295 CNS = test system: SF-295 CNS
SF-539 CNS = test system: SF-539 CNS
SK-MEL-2 melanoma = test system: SK-MEL-2 melanoma
SK-MEL-28 melanoma = test system: SK-MEL-28 melanoma
SK-MEL-5 melanoma = test system: SK-MEL-5 melanoma
SK-OV-3 ovarian = test system: SK-OV-3 ovarian
SN12C renal = test system: SN12C renal
SNB-19 CNS = test system: SNB-19 CNS
SNB-75 CNS = test system: SNB-75 CNS
SW-620 colon = test system: SW-620 colon
T-47D breast = test system: T-47D breast
TK-10 renal = test system: TK-10 renal
U251 CNS = test system: U251 CNS
UACC-257 melanoma = test system: UACC-257 melanoma
UACC-62 melanoma = test system: UACC-62 melanoma
UO-31 renal = test system: UO-31 renal
A498 renal = test system: A498 renal
CAKI-1 renal = test system: CAKI-1 renal
HOP-92 NSCLC = test system: HOP-92 NSCLC
BT-549 breast = test system: BT-549 breast
HCC-2998 colon = test system: HCC-2998 colon
RPMI-8226 leukemia = test system: RPMI-8226 leukemia

## COC(=O)C1c2cc3c(c(O)c2CCC1(C)O)C(=O)c1c(O)cc2c(c1C3=O)OC1OC2(C)C(O)C(N(C)C)C1O (stereo not given)
786-0 renal
  TGI: 2630 nM
A549 NSCLC
  TGI: 916 nM
ACHN renal
  TGI: 1170 nM
COLO 205 colon
  TGI: 1730 nM
DU-145 prostate
  TGI: 561 nM
EKVX NSCLC
  TGI: 774 nM
HCT-116 colon
  TGI: 24200 nM
HCT-15 colon
  TGI: 1700 nM
HL-60(TB) leukemia
  TGI: 2800 nM
HOP-62 NSCLC
  TGI: 1580 nM
HS 578T breast
  TGI: 3770 nM
HT29 colon
  TGI: 1290 nM
IGROV1 ovarian
  TGI: 2350 nM
K-562 leukemia
  TGI: 1030 nM
KM12 colon
  TGI: 1520 nM
LOX IMVI melanoma
  TGI: 1400 nM
M14 melanoma
  TGI: 5330 nM
MALME-3M melanoma
  TGI: 1170 nM
MCF7 breast
  TGI: 2500 nM
MDA-MB-231 breast
  TGI: 1690 nM
MDA-MB-435
  TGI: 2170 nM
MOLT-4 leukemia
  TGI: 357 nM
NCI-H226 lung
  TGI: 450 nM
NCI-H23 lung
  TGI: 1990 nM
NCI-H460 lung
  TGI: 2110 nM
NCI-H522 lung
  TGI: 2810 nM
NCI/ADR-RES ovarian
  TGI: 3540 nM
OVCAR-3 ovarian
  TGI: 1620 nM
OVCAR-4 ovarian
  TGI: 1450 nM
OVCAR-5 ovarian
  TGI: 1030 nM
OVCAR-8 ovarian
  TGI: 591 nM
PC-3 prostate
  TGI: 1790 nM
RXF 393 renal
  TGI: 1550 nM
SF-268 CNS
  TGI: 11100 nM
SF-295 CNS
  TGI: 1870 nM
SF-539 CNS
  TGI: 3880 nM
SK-MEL-2 melanoma
  TGI: 18800 nM
SK-MEL-28 melanoma
  TGI: 15700 nM
SK-MEL-5 melanoma
  TGI: 1730 nM
SK-OV-3 ovarian
  TGI: 15000 nM
SN12C renal
  TGI: 3840 nM
SNB-19 CNS
  TGI: 1390 nM
SNB-75 CNS
  TGI: 1370 nM
SW-620 colon
  TGI: 1080 nM
T-47D breast
  TGI: 1610 nM
TK-10 renal
  TGI: 1660 nM
U251 CNS
  TGI: 1710 nM
UACC-257 melanoma
  TGI: 739 nM
UACC-62 melanoma
  TGI: 1910 nM
UO-31 renal
  TGI: 4620 nM

## Cc1cn2c(/C=N/N=C(N)N)c(-c3ccc([N+](=O)[O-])cc3)nc2s1
A498 renal
  TGI: 3010 nM
ACHN renal
  TGI: 2820 nM
CAKI-1 renal
  TGI: 6570 nM
COLO 205 colon
  TGI: 1970 nM
HCT-15 colon
  TGI: 2770 nM
HT29 colon
  TGI: 2670 nM
KM12 colon
  TGI: 1720 nM
NCI/ADR-RES ovarian
  TGI: > 100000 nM
OVCAR-4 ovarian
  TGI: 316 nM
OVCAR-5 ovarian
  TGI: 2140 nM
PC-3 prostate
  TGI: 2730 nM
SF-539 CNS
  TGI: 3050 nM
SK-MEL-28 melanoma
  TGI: 3050 nM
SK-OV-3 ovarian
  TGI: 3140 nM
SNB-75 CNS
  TGI: 1870 nM
SW-620 colon
  TGI: 331 nM
UO-31 renal
  TGI: 3370 nM

## O=C1NC(=Nc2ccc(O)cc2)S/C1=C\c1cccs1
COLO 205 colon
  GI50: > 100000 nM
  TGI: > 100000 nM
EKVX NSCLC
  GI50: > 100000 nM
  TGI: > 100000 nM
HOP-92 NSCLC
  GI50: > 100000 nM
  TGI: > 100000 nM
HT29 colon
  GI50: > 100000 nM
  TGI: > 100000 nM
MALME-3M melanoma
  GI50: > 100000 nM
  TGI: > 100000 nM
MDA-MB-231 breast
  GI50: > 100000 nM
  TGI: > 100000 nM
NCI-H23 lung
  GI50: > 100000 nM
  TGI: > 100000 nM
NCI/ADR-RES ovarian
  GI50: > 100000 nM
  TGI: > 100000 nM
OVCAR-4 ovarian
  GI50: > 100000 nM
  TGI: > 100000 nM
SK-MEL-2 melanoma
  GI50: > 100000 nM
  TGI: > 100000 nM
SK-MEL-28 melanoma
  GI50: > 100000 nM
  TGI: > 100000 nM
SK-OV-3 ovarian
  GI50: > 100000 nM
  TGI: > 100000 nM
TK-10 renal
  GI50: > 100000 nM
  TGI: > 100000 nM
UACC-257 melanoma
  GI50: > 100000 nM
  TGI: > 100000 nM

## C[C@@]12CC[C@@H](O)C[C@@H]1CC[C@H]1[C@H]2CC[C@@]2(C)[C@H](c3ccc(=O)oc3)CC[C@@]12O
A498 renal
  GI50: < 10 nM
  TGI: 44.5 nM
A549 NSCLC
  GI50: < 10 nM
BT-549 breast
  GI50: < 10 nM
  TGI: 10.4 nM
CAKI-1 renal
  GI50: < 10 nM
  TGI: 14.8 nM
DU-145 prostate
  GI50: < 10 nM
  TGI: 16.8 nM
EKVX NSCLC
  GI50: < 10 nM
  TGI: 10.4 nM
HCC-2998 colon
  GI50: 12.4 nM
  TGI: 142 nM
HCT-116 colon
  GI50: < 10 nM
  TGI: 12.2 nM
HCT-15 colon
  GI50: < 10 nM
  TGI: 29.2 nM
HOP-62 NSCLC
  GI50: < 10 nM
  TGI: 15.6 nM
HOP-92 NSCLC
  GI50: < 10 nM
  TGI: 57.1 nM
HS 578T breast
  GI50: < 10 nM
  TGI: 35.1 nM
HT29 colon
  GI50: < 10 nM
  TGI: 46.7 nM
IGROV1 ovarian
  GI50: < 10 nM
  TGI: 171 nM
K-562 leukemia
  GI50: < 10 nM
  TGI: 30.9 nM
KM12 colon
  GI50: < 12.3 nM
  TGI: 153 nM
LOX IMVI melanoma
  GI50: < 10 nM
  TGI: 16.9 nM
M14 melanoma
  GI50: < 10 nM
  TGI: 56.4 nM
MALME-3M melanoma
  GI50: < 10 nM
  TGI: 17.4 nM
MCF7 breast
  GI50: < 10 nM
  TGI: 93.2 nM
MDA-MB-231 breast
  GI50: 19.2 nM
  TGI: 116 nM
MDA-MB-435
  GI50: < 10 nM
  TGI: 58.7 nM
NCI-H226 lung
  GI50: < 18.3 nM
  TGI: 72.3 nM
NCI-H23 lung
  GI50: < 10 nM
  TGI: 22.6 nM
NCI-H522 lung
  GI50: < 10 nM
  TGI: 21 nM
NCI/ADR-RES ovarian
  GI50: < 10 nM
  TGI: 28.5 nM
OVCAR-3 ovarian
  GI50: < 10 nM
  TGI: 26.8 nM
OVCAR-4 ovarian
  GI50: < 12.4 nM
  TGI: 63.9 nM
OVCAR-5 ovarian
  GI50: 13.2 nM
  TGI: 42.6 nM
PC-3 prostate
  GI50: < 10 nM
  TGI: 20.9 nM
RPMI-8226 leukemia
  GI50: < 10 nM
RXF 393 renal
  GI50: < 10 nM
SF-268 CNS
  GI50: < 10 nM
  TGI: 34.4 nM
SF-295 CNS
  GI50: < 10 nM
  TGI: 25 nM
SF-539 CNS
  GI50: < 10 nM
  TGI: 13.7 nM
SK-MEL-2 melanoma
  GI50: < 10 nM
  TGI: 29.9 nM
SK-MEL-28 melanoma
  GI50: < 14.1 nM
  TGI: 119 nM
SK-MEL-5 melanoma
  GI50: < 10 nM
  TGI: 14.1 nM
SK-OV-3 ovarian
  GI50: < 11.8 nM
  TGI: 45.1 nM
SN12C renal
  GI50: < 10 nM
  TGI: 27.2 nM
SNB-19 CNS
  GI50: < 10.4 nM
  TGI: 75.5 nM
SNB-75 CNS
  GI50: < 10 nM
  TGI: 26.3 nM
SW-620 colon
  GI50: < 10 nM
  TGI: 18 nM
T-47D breast
  GI50: < 10 nM
  TGI: 57.7 nM
TK-10 renal
  GI50: < 10 nM
  TGI: 28 nM
U251 CNS
  GI50: < 10 nM
  TGI: 36.3 nM
UACC-257 melanoma
  GI50: < 13.5 nM
  TGI: 46.7 nM
UACC-62 melanoma
  GI50: < 13.5 nM
  TGI: 43.5 nM
UO-31 renal
  GI50: < 10 nM
  TGI: 14.7 nM

Reference: PubChem BioAssay (NCI)
